How the values were obtained:
Assay type in all cases: biochemical
[1] = target: human cathepsin V (Homo sapiens, UniProt O60911); assay: cathepsin V inhibition assay, fluorogenic substrate Cbz-Phe-Arg-AMC; settings: Table 2; human recombinant enzyme, 2 μM substrate; read-out: hCat V Ki
Method: (§1) All assays for cathepsin K were carried out with human and rat recombinant enzyme. Assays for cathepsins S & V were also carried out with human recombinant enzyme. Assays for human cathepsins B, H, and L were carried out with enzyme, purchased from Athens Research and Technology, Inc., prepared from human liver tissue. Standard assay conditions for the determination of kinetic constants used a fluorogenic peptide substrate, typically (5S,8S)-13-amino-5-benzyl-13-imino-3-methylene-N-(4-methyl-2-oxo-2H-chromen-7-yl)-6-oxo-1-phenyl-2-oxa-4,7,12-triazatridecane-8-carboxamide (Cbz-Phe-Arg-AMC), and were determined in 100 mM sodium acetate at pH 5.5 containing 10 mM dithiothreitol and 120 mM sodium chloride. A stock substrate solution of Cbz-Phe-Arg-AMC was prepared at a concentration of 50 mM in dimethyl sulfoxide. This substrate was diluted into the assay for a final substrate concentration of 10 μM in the rat cathepsin K, human cathepsin K, and human cathepsin B assays; a final substrate concentration of 5 μM in the human cathepsin L assay; and a final substrate concentration of 2 μM in the human cathepsin V assay.
(§2) All assays contained 10% dimethyl sulfoxide. […] All assays were conducted at 30° C. Product fluorescence (excitation at 360 nm; emission at 440 nm, (except cathepsin H which used excitation at 340 nm; emission at 420 nm)) was monitored with a PerSeptive Biosystems Cytofluor II fluorescence plate reader. Product progress curves were generated over 2.3 h monitoring the formation of 7-amino-4-methylcoumarin product (or β-naphthalamide for cathepsin H).
(§3) Potential inhibitors were evaluated using the progress curve method. […] For those compounds whose progress curves were linear, the enzymatic activity (RATE) was plotted against the concentration of test compound, including inhibitor concentration of zero ([I]=0), and the IC50 determined from a fit of equation 1 to the data, RATE=Vmax/(1+([I]/IC50)) (1) where Vmax is the best fit estimate of the maximal enzymatic activity. Ki values were calculated from IC50 values using equation 2 assuming a competitive model.

[2] = target: human cathepsin L (Homo sapiens, UniProt P07711); assay: cathepsin L inhibition assay, fluorogenic substrate Cbz-Phe-Arg-AMC; settings: Table 2; enzyme from human liver tissue, 5 μM substrate; read-out: hCat L Ki
Chain of human cathepsin L (P07711 114-288 limits assumed): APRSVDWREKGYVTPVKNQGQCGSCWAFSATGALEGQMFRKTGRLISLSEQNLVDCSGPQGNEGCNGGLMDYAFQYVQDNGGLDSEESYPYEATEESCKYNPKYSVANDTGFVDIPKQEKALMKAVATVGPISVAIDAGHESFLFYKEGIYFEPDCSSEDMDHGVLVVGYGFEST
Chain of human cathepsin L (P07711 292-333 limits assumed): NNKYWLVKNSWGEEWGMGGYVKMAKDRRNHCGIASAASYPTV
Method: as §1, §2, §3

[3] = target: human cathepsin S (Homo sapiens, UniProt P25774); assay: cathepsin S inhibition assay, fluorogenic substrate Cbz-Val-Val-Arg-AMC; settings: Table 2; human recombinant enzyme, 10 μM substrate; read-out: hCat S Ki
Chain of human cathepsin S (P25774 115-331): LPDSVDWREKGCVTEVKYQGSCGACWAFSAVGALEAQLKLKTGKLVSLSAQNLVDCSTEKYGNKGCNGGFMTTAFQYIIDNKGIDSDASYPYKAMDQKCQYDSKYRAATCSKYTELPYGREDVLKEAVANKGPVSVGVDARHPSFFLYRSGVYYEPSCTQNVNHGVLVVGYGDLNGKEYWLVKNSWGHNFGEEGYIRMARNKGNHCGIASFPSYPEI
Method: as §1, with “assay. […]” for “assay.”
(§4) All assays contained 10% dimethyl sulfoxide. […] Product fluorescence (excitation at 360 nm; emission at 440 nm, (except cathepsin H which used excitation at 340 nm; emission at 420 nm)) was monitored with a PerSeptive Biosystems Cytofluor II fluorescence plate reader. […]
as §3

[4] = target: human cathepsin B (Homo sapiens, UniProt P07858); assay: cathepsin B inhibition assay, fluorogenic substrate Cbz-Phe-Arg-AMC; settings: Table 2; enzyme from human liver tissue, 10 μM substrate; read-out: hCat B Ki
Method: as §1, §2, §3

[5] = target: human cathepsin H (Homo sapiens, UniProt P09668); assay: cathepsin H inhibition assay, substrate L-Arg-β-naphthalamide; settings: Table 2; enzyme from human liver tissue, 50 μM substrate; read-out: hCat H Ki
Chain of human cathepsin H (P09668 116-335 limits assumed, other chains not shown): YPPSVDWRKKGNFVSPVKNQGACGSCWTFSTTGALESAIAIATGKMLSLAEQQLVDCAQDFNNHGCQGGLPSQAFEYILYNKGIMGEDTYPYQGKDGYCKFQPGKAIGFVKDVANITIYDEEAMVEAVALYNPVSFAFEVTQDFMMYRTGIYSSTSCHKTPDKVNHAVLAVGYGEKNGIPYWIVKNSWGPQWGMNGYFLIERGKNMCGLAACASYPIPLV
Method: as §1, with “assay. […]” for “assay.”
as §4, §3

Chain of human cathepsin V (O60911 114-334): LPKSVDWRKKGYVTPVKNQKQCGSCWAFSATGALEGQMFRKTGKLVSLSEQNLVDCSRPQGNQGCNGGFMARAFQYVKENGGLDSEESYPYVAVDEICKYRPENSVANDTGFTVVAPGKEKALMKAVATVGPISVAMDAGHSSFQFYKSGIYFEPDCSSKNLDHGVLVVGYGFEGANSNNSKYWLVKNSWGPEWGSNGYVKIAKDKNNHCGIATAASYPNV

Compound	Ki [1] [nM]	Ki [2] [nM]	Ki [3] [nM]	Ki [4] [nM]	Ki [5] [nM]
CCCC[C@H](NC(=O)OC1(Cc2ccccc2)CCCC1)C(=O)C(=O)N[C@@H](C)C(=O)OCc1ccccc1 [Example 3, Benzyl (2S)-2-{[(3S)-3-({[(1-benzylcyclopentyl)oxy]carbonyl}amino)-2-oxoheptanoyl]amino}propanoate]	> 1000	> 1000	100 to 1000	> 1000	> 1000
CCCC[C@H](NC(=O)OCC1(Cc2ccc(F)cc2)CCC1)C(=O)C(=O)Nc1n[nH]c2cc(Cl)ccc12 [Example 15, [1-(4-fluorobenzyl)cyclobutyl]methyl(1S)-1-[[(6-chloro-1H-indazol-3-yl)amino](oxo)acetyl]pentylcarbamate]	1 to 10	10 to 100	1 to 10	100 to 1000	100 to 1000
CCCC[C@H](NC(=O)OC1(c2nc3ccccc3s2)CCCC1)C(=O)C(=O)Nc1ccn[nH]1 [Example 17, 1-(1,3-Benzothiazol-2-yl)cyclopentyl(1S)-1-[oxo(1H-pyrazol-3-ylamino)acetyl]pentylcarbamate]	10 to 100	10 to 100	10 to 100	> 1000	> 1000

— patent publication US7282512B2, “Cycloalkyl ketoamides derivatives useful as cathepsin K inhibitors” (SmithKline Beecham Corporation, priority 2002, dated 2007)
